Patent US20200024278A1, “COMPOSITION COMPRISING ANTIBIOTIC COMPOUND AND AN HETEROCYCLIC COMPOUND AND THEIR USE IN PREVENTING OR TREATING BACTERIAL INFECTIONS” (MUTABILIS, priority 2016, published 2020)
Read-outs that look alike come from different tables or passages of the source.

Key:
Experiment in all cases: MIC, broth microdilution (CLSI), substance alone or ATB combined with compound at 4 or 8 μg/mL
ECL P99 = type: cell-based, E. cloacae; details: Enterobacter cloacae, ECL P99
In short: (§1)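 Potentiation format: antibiotic dilution series run with test compound held at 4 or 8 μg/mL, alongside compound-alone MICs. Broth microdilution per CLSI in ca-MHB, 16-20 h at 35° C.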

KPN UFR68 = type: cell-based, K. pneumoniae; details: Klebsiella pneumoniae, substance alone
In short: as §1

KPN 6299 = type: cell-based, K. pneumoniae; details: Klebsiella pneumoniae
In short: as §1

PAE 105250 = type: cell-based, P. aeruginosa; details: Pseudomonas aeruginosa, PAE 105250
In short: as §1

PAE UFR48 = type: cell-based, P. aeruginosa; details: Pseudomonas aeruginosa, PAE UFR48
In short: as §1

PAE UFR90 = type: cell-based, P. aeruginosa; details: Pseudomonas aeruginosa, PAE UFR90
In short: as §1

ABA UFR154 = type: cell-based, A. baumannii
Method: (§2) Compounds of the present invention were assessed against genotyped bacterial strains alone or in combination with an antibacterial. In the assays, MICs of said compounds or combination of antibiotics with fixed concentrations of said compounds (4 or 8 μg/mL) were determined by the broth microdilution method according to the Clinical Laboratory Standards Institute (CLSI-M7-A7). Briefly, compounds alone according to the invention were prepared in DMSO and spotted (2 μL each) on sterile polystyrene plates (Corning, 3788). Combinations of compounds and antibiotics dilutions were prepared in DMSO and spotted (1 μL each) on sterile polystyrene plates (Corning, 3788). Log phase bacterial suspensions were adjusted to a final density of 5·10^5 CFU/mL in cation-adjusted Mueller-Hinton broth (ca-MHB; Becton-Dickinson and Company) and added to each well (98 μL). Assays including Fosfomycin were supplemented with 25 μg/ml of Glucose-6-phosphate. Microplates were incubated for 16-20 h at 35° C. in ambient air. The MIC of the compounds was defined as the lowest concentration of said compounds that prevented bacterial growth as read by visual inspection. The MIC of ATB at each compound concentration was defined as the lowest concentration of ATB that prevented bacterial growth as read by visual inspection.

ABA UFR157 = type: cell-based, A. baumannii
Method: as §2

ABA 19606 = type: cell-based, A. baumannii
Method: as §2

ABA UFR152 = type: cell-based, A. baumannii
Method: as §2

[1] = antibiotic alone, read-out: MIC ATB alone
[2] = Acinetobacter baumannii, antibiotic alone, read-out: MIC ATB alone

SMILES: C[C@@H](O)[C@H]1C(=O)N2C(C(=O)O)=C(S[C@@H]3CN[C@H](C(=O)N(C)C)C3)[C@H](C)[C@H]12 [MEM, Meropenem]
- MIC (ECL P99; [1]): 0.063 µg/mL
- MIC (ECL P99; substance alone, read-out: MIC): 0.063 µg/mL
- MIC (KPN UFR68): 32 µg/mL
- MIC (KPN 6299; [1]): 1 µg/mL
- MIC (KPN 6299; substance alone, read-out: MIC): 1 µg/mL
- MIC (PAE 105250; [1]): 4 µg/mL
- MIC (PAE 105250; substance alone, read-out: MIC): 4 µg/mL
- MIC (PAE UFR48; [1]): 4 µg/mL
- MIC (PAE UFR48; substance alone, read-out: MIC): 4 µg/mL
- MIC (PAE UFR90; [1]): 2 µg/mL
- MIC (PAE UFR90; substance alone, read-out: MIC): 2 µg/mL
- MIC (ABA UFR154; [2]): 1 µg/mL
- MIC ATB combined with Example 1 @8 μg/ml (ABA UFR154; with Example 1 @8 μg/ml): 0.5 µg/mL
- MIC ATB combined with Example 3 @8 μg/ml (ABA UFR154; with Example 3 @8 μg/ml): <=0.25 μg/mL
- MIC ATB combined with Example 6 @8 μg/ml (ABA UFR154; with Example 6 @8 μg/ml): 0.5 µg/mL
- MIC ATB combined with Example 9 @4 μg/ml (ABA UFR154; with Example 9 @4 μg/ml): 0.5 µg/mL
- MIC ATB combined with Example 10 @8 μg/ml (ABA UFR154; with Example 10 @8 μg/ml): <=0.25 μg/mL
- MIC ATB combined with Example 11 @8 μg/ml (ABA UFR154; with Example 11 @8 μg/ml): 1 µg/mL
- MIC ATB combined with Example 12 @8 μg/ml (ABA UFR154; with Example 12 @8 μg/ml): <=0.25 μg/mL
- MIC ATB combined with Example 15 @4 μg/ml (ABA UFR154; with Example 15 @4 μg/ml): 0.5 µg/mL
- MIC (ABA UFR157; [2]): 32 µg/mL
- MIC ATB combined with Example 1 @8 μg/ml (ABA UFR157; with Example 1 @8 μg/ml): 1 µg/mL
- MIC ATB combined with Example 3 @8 μg/ml (ABA UFR157; with Example 3 @8 μg/ml): <=0.25 μg/mL
- MIC ATB combined with Example 6 @8 μg/ml (ABA UFR157; with Example 6 @8 μg/ml): <=0.25 μg/mL
- MIC ATB combined with Example 9 @4 μg/ml (ABA UFR157; with Example 9 @4 μg/ml): 1 µg/mL
- MIC ATB combined with Example 10 @8 μg/ml (ABA UFR157; with Example 10 @8 μg/ml): 0.5 µg/mL
- MIC ATB combined with Example 11 @8 μg/ml (ABA UFR157; with Example 11 @8 μg/ml): 0.5 µg/mL
- MIC ATB combined with Example 12 @8 μg/ml (ABA UFR157; with Example 12 @8 μg/ml): <=0.25 μg/mL
- MIC ATB combined with Example 15 @4 μg/ml (ABA UFR157; with Example 15 @4 μg/ml): 0.5 µg/mL
- MIC (ABA 19606; [2]): 1 µg/mL
- MIC ATB combined with Example 1 @8 μg/ml (ABA 19606; with Example 1 @8 μg/ml): 1 µg/mL
- MIC ATB combined with Example 3 @8 μg/ml (ABA 19606; with Example 3 @8 μg/ml): <=0.25 μg/mL
- MIC ATB combined with Example 6 @8 μg/ml (ABA 19606; with Example 6 @8 μg/ml): <=0.25 μg/mL
- MIC ATB combined with Example 9 @4 μg/ml (ABA 19606; with Example 9 @4 μg/ml): 2 µg/mL
- MIC ATB combined with Example 10 @8 μg/ml (ABA 19606; with Example 10 @8 μg/ml): <=0.25 μg/mL
- MIC ATB combined with Example 11 @8 μg/ml (ABA 19606; with Example 11 @8 μg/ml): 0.5 µg/mL
- MIC ATB combined with Example 12 @8 μg/ml (ABA 19606; with Example 12 @8 μg/ml): <=0.25 μg/mL
- MIC ATB combined with Example 15 @4 μg/ml (ABA 19606; with Example 15 @4 μg/ml): 0.5 µg/mL
- MIC (ABA UFR152; [2]): 2 µg/mL
- MIC ATB combined with Example 1 @8 μg/ml (ABA UFR152; with Example 1 @8 μg/ml): 4 µg/mL
- MIC ATB combined with Example 3 @8 μg/ml (ABA UFR152; with Example 3 @8 μg/ml): 1 µg/mL
- MIC ATB combined with Example 6 @8 μg/ml (ABA UFR152; with Example 6 @8 μg/ml): 2 µg/mL
- MIC ATB combined with Example 9 @4 μg/ml (ABA UFR152; with Example 9 @4 μg/ml): 1 µg/mL
- MIC ATB combined with Example 10 @8 μg/ml (ABA UFR152; with Example 10 @8 μg/ml): 1 µg/mL
- MIC ATB combined with Example 11 @8 μg/ml (ABA UFR152; with Example 11 @8 μg/ml): 1 µg/mL
- MIC ATB combined with Example 12 @8 μg/ml (ABA UFR152; with Example 12 @8 μg/ml): 1 µg/mL
